Measurements published in patent US12528802B2, “Heterocyclic compound” (Takeda Pharmaceutical Company Limited, priority 2019, dated 2026).

The compounds below were run against T1, glucosylceramide synthase (Homo sapiens, UniProt Q16739) (assay: Glucosylceramide synthase (GCS) enzyme assay, microsome fraction, C8 glucosylceramide quantified by Rapidfire MS/MS). Details: test compound 10 μM; 1.7 μM UDP-glucose, 3 μM C8 ceramide; room temperature 60 min.
T1 construct: made in house; host or cells: Expi293F cells (transient expression, pcDNA3.3-TOPO vector); microsome fraction used as enzyme source
T1 sequence (Q16739 1-394): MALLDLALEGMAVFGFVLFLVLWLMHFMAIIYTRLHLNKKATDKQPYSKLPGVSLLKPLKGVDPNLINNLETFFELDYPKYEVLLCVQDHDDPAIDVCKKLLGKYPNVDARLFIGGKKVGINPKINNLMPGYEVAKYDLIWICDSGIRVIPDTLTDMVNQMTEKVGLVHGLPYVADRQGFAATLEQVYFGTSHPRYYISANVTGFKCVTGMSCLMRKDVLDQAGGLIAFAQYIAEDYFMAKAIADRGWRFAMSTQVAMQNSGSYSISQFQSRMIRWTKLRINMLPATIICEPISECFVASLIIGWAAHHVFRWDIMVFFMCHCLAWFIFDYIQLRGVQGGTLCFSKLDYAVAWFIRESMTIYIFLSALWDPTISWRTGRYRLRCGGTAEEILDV
Type: biochemical
How it was run: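 Test compound, 10 μM final, was run against human GCS from transfected Expi293F microsome fractions, using substrate solution of 6 μM C8 ceramide (in DOPC liposomes) plus 3.4 μM UDP-glucose, pH 7.5 Tris buffer, 60 min, room temperature. Product C8 glucosylceramide measured by Rapidfire MS/MS against an internal standard, % inhibition referenced to no-enzyme and DMSO wells.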
In the case of `Cc1cncc(OCC(F)(F)F)c1-c1nccc2c1CN(c1ccc(OC(F)F)cc1)C2=O` [Example 198, 2-[4-(difluoromethoxy)phenyl]-4-[3-methyl-5-(2,2,2-trifluoroethoxy)pyridin-4-yl]-2,3-dihydro-1H-pyrrolo[3,4-c]pyridin-1-one], the “GCS enzyme inhibitory rate at 10 μM (%) (% of control)” value is reported as 99%.

Same assay, conditions: test compound 10 μM; 1.7 μM UDP-glucose, 3 μM C8 ceramide; room temperature 60 min; read-out: GCS enzyme inhibitory rate at 10 μM (%) (% of control)
Work on `O=C1c2ccnc(-c3ccc(F)cc3OCC(F)(F)F)c2CN1c1ccc(N2CCOCC2)nc1` [Example 177, 4-[4-fluoro-2-(2,2,2-trifluoroethoxy)phenyl]-2-[6-(morpholin-4-yl)pyridin-3-yl]-2,3-dihydro-1H-pyrrolo[3,4-c]pyridin-1-one] yielded an inhibition at 10 µM of 98%.
With `COC1(c2ccc(N3Cc4c(ccnc4-c4ccc(F)cc4OCC(F)(F)F)C3=O)cc2)COC1` [Example 178, 4-[4-fluoro-2-(2,2,2-trifluoroethoxy)phenyl]-2-[4-(3-methoxyoxetan-3-yl)phenyl]-2,3-dihydro-1H-pyrrolo[3,4-c]pyridin-1-one] the inhibition at 10 µM was 98%.
For `CN1CCN=C(c2ccc(F)cc2OCC(F)(F)F)C2=C1C(=O)N(c1ccc(OCC(F)(F)F)cc1)C2` [Example 179, 5-[4-fluoro-2-(2,2,2-trifluoroethoxy)phenyl]-1-methyl-7-[4-(2,2,2-trifluoroethoxy)phenyl]-2,3,6,7-tetrahydropyrrolo[3,4-e][1,4]diazepin-8(1H)-one], the inhibition at 10 µM was 91%.
With `O=C(c1ccc(N2Cc3c(ccnc3-c3ccc(F)cc3OCC(F)(F)F)C2=O)cc1)N1CCCC1` [Example 180, 4-[4-fluoro-2-(2,2,2-trifluoroethoxy)phenyl]-2-[4-(pyrrolidine-1-carbonyl)phenyl]-2,3-dihydro-1H-pyrrolo[3,4-c]pyridin-1-one] the inhibition at 10 µM was 92%.
For `O=C(c1ccc(N2Cc3c(ccnc3-c3ccc(F)cc3OCC(F)(F)F)C2=O)cc1)N1CC(F)(F)C1` [Example 181, 2-[4-(3,3-difluoroazetidine-1-carbonyl)phenyl]-4-[4-fluoro-2-(2,2,2-trifluoroethoxy)phenyl]-2,3-dihydro-1H-pyrrolo[3,4-c]pyridin-1-one], the inhibition at 10 µM was 89%.
Work on `O=C(c1ccc(N2Cc3c(ccnc3-c3ccc(F)cc3OCC(F)(F)F)C2=O)cc1)N1CCC(F)(F)CC1` [Example 182, 2-[4-(4,4-difluoropiperidine-1-carbonyl)phenyl]-4-[4-fluoro-2-(2,2,2-trifluoroethoxy)phenyl]-2,3-dihydro-1H-pyrrolo[3,4-c]pyridin-1-one] yielded an inhibition at 10 µM of 99%.
`COc1ccccc1-n1ncc2c1CN(c1ccc(F)cc1)C2` [Example 183, 5-(4-fluorophenyl)-1-(2-methoxyphenyl)-1,4,5,6-tetrahydropyrrolo[3,4-c]pyrazole] was tested, and the inhibition at 10 µM was 83%.
With `CC(C)(O)c1ccc(N2Cc3c(ccnc3-c3ccccc3OCC(F)(F)F)C2=O)cn1` [Example 184, 2-[6-(2-hydroxypropan-2-yl)pyridin-3-yl]-4-[2-(2,2,2-trifluoroethoxy)phenyl]-2,3-dihydro-1H-pyrrolo[3,4-c]pyridin-1-one] the inhibition at 10 µM was 96%.
For `O=C1c2ncnc(-c3ccc(F)cc3OCC(F)(F)F)c2CN1c1ccc(F)cc1` [Example 185, 6-(4-fluorophenyl)-4-[4-fluoro-2-(2,2,2-trifluoroethoxy)phenyl]-5,6-dihydro-7H-pyrrolo[3,4-d]pyrimidin-7-one], the inhibition at 10 µM was 71%.
With `O=C1c2ccnc(-c3ccccc3OCC(F)(F)F)c2CN1c1ccc(O[C@@H]2CCOC2)cc1` [Example 187, 2-(4-{[(3R)-oxolan-3-yl]oxy}phenyl)-4-[2-(2,2,2-trifluoroethoxy)phenyl]-2,3-dihydro-1H-pyrrolo[3,4-c]pyridin-1-one] the inhibition at 10 µM was 100%.
`O=C1c2ccnc(-c3ccccc3OCC(F)(F)F)c2CN1c1ccc(O[C@H]2CCOC2)cc1` [Example 188, 2-(4-{[(3S)-oxolan-3-yl]oxy}phenyl)-4-[2-(2,2,2-trifluoroethoxy)phenyl]-2,3-dihydro-1H-pyrrolo[3,4-c]pyridin-1-one] showed an inhibition at 10 µM of 100%.
Work on `CCC(=O)c1ccc(N2Cc3c(ccnc3-c3ccc(F)cc3OCC(F)(F)F)C2=O)cc1` [Example 189, 4-[4-fluoro-2-(2,2,2-trifluoroethoxy)phenyl]-2-(4-propanoylphenyl)-2,3-dihydro-1H-pyrrolo[3,4-c]pyridin-1-one] yielded an inhibition at 10 µM of 94%.
Work on `CCC(=O)c1ccc(N2Cc3c(ccnc3-c3ccccc3OCC(F)(F)F)C2=O)cc1` [Example 190, 2-(4-propanoylphenyl)-4-[2-(2,2,2-trifluoroethoxy)phenyl]-2,3-dihydro-1H-pyrrolo[3,4-c]pyridin-1-one] yielded an inhibition at 10 µM of 98%.
Work on `O=C1c2ccnc(-c3ccccc3OCC(F)(F)F)c2CN1c1ccc(C2(O)CCC2)cc1` [Example 191, 2-[4-(1-hydroxycyclobutyl)phenyl]-4-[2-(2,2,2-trifluoroethoxy)phenyl]-2,3-dihydro-1H-pyrrolo[3,4-c]pyridin-1-one] yielded an inhibition at 10 µM of 100%.
`CC(C)(O)c1ccc(N2Cc3c(ncnc3-c3ccc(F)cc3OCC(F)(F)F)C2=O)cc1` [Example 192, 4-[4-fluoro-2-(2,2,2-trifluoroethoxy)phenyl]-6-[4-(2-hydroxypropan-2-yl)phenyl]-5,6-dihydro-7H-pyrrolo[3,4-d]pyrimidin-7-one] was tested, and the inhibition at 10 µM was 88%.
`Fc1ccc(N2Cc3cnn(-c4ccccc4OCC(F)(F)F)c3C2)cc1` [Example 193, 5-(4-fluorophenyl)-1-[2-(2,2,2-trifluoroethoxy)phenyl]-1,4,5,6-tetrahydropyrrolo[3,4-c]pyrazole] was tested, and the inhibition at 10 µM was 98%.
Work on `O=C1c2ccnc(-c3ccc(F)cc3OCC(F)(F)F)c2CN1c1ccc(OCC2(F)COC2)cc1` [Example 194, 2-{4-[(3-fluorooxetan-3-yl)methoxy]phenyl}-4-[4-fluoro-2-(2,2,2-trifluoroethoxy)phenyl]-2,3-dihydro-1H-pyrrolo[3,4-c]pyridin-1-one] yielded an inhibition at 10 µM of 98%.
Compound `CC(C)(O)COc1ccc(N2Cc3c(ccnc3-c3ccccc3OCC(F)(F)F)C2=O)cc1` [Example 195, 2-[4-(2-hydroxy-2-methylpropoxy)phenyl]-4-[2-(2,2,2-trifluoroethoxy)phenyl]-2,3-dihydro-1H-pyrrolo[3,4-c]pyridin-1-one] has an inhibition at 10 µM of 100%.
`Cn1cc2c(c(-c3ccc(F)cc3OCC(F)(F)F)c1=O)CN(c1ccc(OC(F)F)cc1)C2=O` [Example 196, 2-[4-(difluoromethoxy)phenyl]-7-[4-fluoro-2-(2,2,2-trifluoroethoxy)phenyl]-5-methyl-1H-pyrrolo[3,4-c]pyridine-3,6(2H,5H)-dione] was tested, and the inhibition at 10 µM was 100%.
Work on `CC(C)(O)c1ccc(N2Cc3c(ccnc3-c3ccc(F)cc3OCC(F)(F)F)C2=O)cn1` [Example 197, 4-[4-fluoro-2-(2,2,2-trifluoroethoxy)phenyl]-2-[6-(2-hydroxypropan-2-yl)pyridin-3-yl]-2,3-dihydro-1H-pyrrolo[3,4-c]pyridin-1-one] yielded an inhibition at 10 µM of 88%.
`O=C1c2ccnc(-c3ccc(F)cc3OCC(F)(F)F)c2CN1c1ccc(C2(O)COC2)cn1` [Example 199, 4-[4-fluoro-2-(2,2,2-trifluoroethoxy)phenyl]-2-[5-(3-hydroxyoxetan-3-yl)pyridin-2-yl]-2,3-dihydro-1H-pyrrolo[3,4-c]pyridin-1-one] was tested, and the inhibition at 10 µM was 91%.
Work on `CC(C)(O)c1ccc(N2Cc3c(ncnc3-c3ccccc3OCC(F)(F)F)C2=O)cc1` [Example 200, 6-[4-(2-hydroxypropan-2-yl)phenyl]-4-[2-(2,2,2-trifluoroethoxy)phenyl]-5,6-dihydro-7H-pyrrolo[3,4-d]pyrimidin-7-one] yielded an inhibition at 10 µM of 95%.
Work on `Cc1cccc(OCC(F)(F)F)c1-c1nccc2c1CN(c1ccc(S(=O)(=O)C(F)F)cc1)C2=O` [Example 201, 2-[4-(difluoromethanesulfonyl)phenyl]-4-[2-methyl-6-(2,2,2-trifluoroethoxy)phenyl]-2,3-dihydro-1H-pyrrolo[3,4-c]pyridin-1-one] yielded an inhibition at 10 µM of 99%.
`O=C1c2ccnc(-c3ccc(F)cc3OCC(F)(F)F)c2CN1c1cnn(CC2(F)COC2)c1` [Example 202, 2-{1-[(3-fluorooxetan-3-yl)methyl]-1H-pyrazol-4-yl}-4-[4-fluoro-2-(2,2,2-trifluoroethoxy)phenyl]-2,3-dihydro-1H-pyrrolo[3,4-c]pyridin-1-one] was tested, and the inhibition at 10 µM was 95%.
Compound `O=C1c2ccnc(-c3ccccc3OCC(F)(F)F)c2CN1c1ccc(C2(O)CCC2)nc1` [Example 203, 2-[6-(1-hydroxycyclobutyl)pyridin-3-yl]-4-[2-(2,2,2-trifluoroethoxy)phenyl]-2,3-dihydro-1H-pyrrolo[3,4-c]pyridin-1-one] has an inhibition at 10 µM of 98%.
Work on `CC1(Oc2ccc(N3Cc4c(ccnc4-c4ccccc4OCC(F)(F)F)C3=O)cn2)COC1` [Example 204, 2-{6-[(3-methyloxetan-3-yl)oxy]pyridin-3-yl}-4-[2-(2,2,2-trifluoroethoxy)phenyl]-2,3-dihydro-1H-pyrrolo[3,4-c]pyridin-1-one] yielded an inhibition at 10 µM of 97%.
For `Cn1nc(-c2ccccc2OCC(F)(F)F)c2c1CN(c1ccc(F)cc1)C2` [Example 205, 5-(4-fluorophenyl)-1-methyl-3-[2-(2,2,2-trifluoroethoxy)phenyl]-1,4,5,6-tetrahydropyrrolo[3,4-c]pyrazole], the inhibition at 10 µM was 83%.
